From patent US20130315834A1, “NANOPROBE COMPRISING GOLD COLLOID NANOPARTICLES FOR MULTIMODALITY OPTICAL IMAGING OF CANCER AND TARGETED DRUG DELIVERY FOR CANCER” (priority 2010, published 2013)

Legend:
[1] = system: CNE2 cells; experiment: In-vitro uptake of hypericin, confocal fluorescence microscopy; type: cell-based; conditions: 2 hypericin, about 6 hours, physiological conditions
Experimental: Confocal fluorescence microscopy is used to study CNE2 cells treated with 2 hypericin and A-431 cells treated with Hypericin-Au-EGFR theragnostic probe for about 6 hours under physiological conditions. […] This will be ideal for a probe for diagnosis and therapy.

[2] = system: A-431 cells; experiment: as above; type: cell-based, human; conditions: about 3 hours incubation, FIG. 9b
Experimental: Targeting and localization of the nanoprobes to cellular receptors is assessed using dark field contrast imaging and confocal fluorescence microscopy. Briefly, A-431 cells are incubated with the nanoprobes for about 3 hours at about 37° C. The cells are then washed in PBS, fixed in 2% paraformaldehyde for about 10 mins and mounted in Vectashield fluorescent mounting medium (Vector Laboratories, Burlingame, Calif.). The cells are visualized via dark field illumination system (CytoViva, Auburn, Ala.) attached to a Nikon Eclipse 80i microscope. The in-vitro localization of the nanoprobes is also assessed by exciting the cells using a 488 nm argon laser. Fluorescence emission in the wavelength range of 590-630 nm is split by a dichroic filter and detected through a band pass filter (BP-610 nm; Omega Optical, Brattleboro, Vt.). […]
Confocal fluorescence microscopy is used to study CNE2 cells treated with 2 hypericin and A-431 cells treated with Hypericin-Au-EGFR theragnostic probe for about 6 hours under physiological conditions. […]
Using confocal laser scanning microscope, the in-vitro uptake of hypericin-GNP labeled with anti-EGFR after about 3 hours incubation is also assessed. […] The intensity of hypericin fluorescence following incubation of hypericin alone is greater compared to incubating the cells with bioconjugated hypericin GNP conjugate (FIG. 9b). […]

[3] = system: A-431 cell lines; experiment: PDT in cellular model, white light, apoptosis/necrosis staining (Example 7); type: cell-based, human; conditions: about 12 hours incubation, broadband white light; hypericin 2-10 μM
Experimental: After establishing the internalization and delivery capabilities of Hypericin-Au-EGFR probe, the therapeutic potential of the probe by conducting a PDT experiment in a cellular model is examined. Hypericin-Au-EGFR probe and various amounts of hypericin are incubated with A-431 cell lines for about 12 hours and PDT is conducted using a broadband excitation using white light. Post PDT images are recorded using a confocal fluorescence microscopy with differential staining for apoptosis in green (as indicated by the white encircled area) and necrosis in red (as shown by the lighter shade indicated by the white arrow) to assess the PDT effect.

For `Cc1cc(O)c2c(=O)c3c(O)cc(O)c4c5c(O)cc(O)c6c(=O)c7c(O)cc(C)c8c1c2c(c34)c(c78)c65` [hypericin], the “hypericin fluorescence in cells” value [1] was “hypericin fluorescence from within the cell”, the “intensity of hypericin fluorescence, hypericin alone compared to bioconjugated hypericin GNP” value [2] was “greater” and the “mode of cell death after PDT” value [3] was “cell death via necrosis”.
